For data set [1], the system named is H2073. The data set can be described thus: Lung cancer cell survival, H2073. The following applies: 72 hour incubation, non-linear curve fit. The class given is cell-based. The method, then:
(§1) The IC50 values generated using a non-linear curve fit with lung cancer cell lines, A549, H460, H2122, and H2073 are listed in Table 10. Experiments were performed using C58, C58-2, C59, C59-2, C119, and acetylated C119 (C119-2). […] Additionally, these concentrations are clinically achievable for treatment of lung cancer and a detailed structure activity relationship experiments needs to be performed to identify promising anticancer candidates.

The subject of data set [2] is H460. The data set is described as follows: Lung cancer cell survival, H460. The class given is cell-based. The following applies: 72 hour incubation, non-linear curve fit. The method, then: as §1
For data set [3], the system named is A549. The data set can be described thus: Lung cancer cell survival, A549. It counts as cell-based. Conditions: 72 hour incubation, non-linear curve fit. As for the experimental part:
as §1

In data set [4] the test system is H2122. The data set can be described thus: Lung cancer cell survival, H2122. It counts as cell-based. Conditions: 72 hour incubation, non-linear curve fit. The method, then: as §1
Data set [5] concerns MRSA strains USA300, 0606, 0608, 0634, 0641, and 0646. The data set is described as follows: MIC/MBC against six MRSA strains (variants of C58/C59, pH, DMSO). It counts as cell-based, Staphylococcus aureus. As for the experimental part:
Six MRSA strains, USA300, 0606, 0608, 0634, 0641, and 0646 were chosen based on their activity against biaryl compounds and vancomycin to determine structure-activity relationship of biaryl compounds. The effect of phenolic group on the activity of biaryl compounds was tested by modifying C59. First, the phenolic group was protected by acetylation to yield an acetylated C59 (C59-2) (FIG. 7B). Additional variants of C59, in the form of sodium and lithium salts were synthesized by incubation with sodium hydroxide and lithium hydroxide (FIGS. 7C and 7D). Antimicrobial activity of these deprotonated, water-soluble sodium (C59Na) and lithium (C59Li) salts, and acetylated derivative of C59 was tested against 6 MRSA strains and compared to the parent compound, C59 (FIGS. 8A-8D). Results from this comparative experiment indicate the contribution of phenolic group/phenoxide ion to the antimicrobial activity.
Further investigation into activity of these compounds under acidic pH conditions also points towards the role of phenolic group. An effective antimicrobial should be active under a wide range of pH conditions, including the physiological pH of 7.4. Localized pH in an infection is often lower than the physiological pH, and may be as low as 5.5 (Radovic-Moreno et al., 2012). Additionally, pH varies among organs (Radovic-Moreno et al., 2012). For example, pH in the bladder or on the skin is found to be between 4.5 and 8.0, or 4.0 and 5.5, respectively (Radovic-Moreno et al., 2012). […] The activity of all biaryl compounds is enhanced by at least four- to eight-fold with reduction in pH from 7.4 to 5.5.
Water soluble sodium and lithium salts of C59 (C59Na and C59Li) and their antimicrobial activity against six MRSA strains are reported above. A sodium salt of C58 (C58Na) was prepared and evaluated efficacy of this compound against these six MRSA strains. […] The poor activity of C58Na may be a result of poor stability of C58Na compared with C59Na and C59Li.

Data set [6] deals with erythrocytes from sheep blood. The data set can be described thus: Hemolytic activity. The method, then:
Toxicity of biaryl compounds was tested against erythrocytes as well as eukaryotic epithelial, dermal, and macrophage cell lines in vitro.
Toxicity of lead antimicrobial candidates was tested against erythrocytes, as well as eukaryotic epithelial and dermal cell lines in vitro.

In data set [7] the test system is human lung airway epithelial cells (16HBE). Conditions: 24-h incubation, non-linear curve fit. As for the experimental part:
Finally, toxicity of biaryl compounds was tested against human lung airway epithelial cells (16HBE), human dermal fibroblasts, and J774.A1 murine macrophages using an ALAMARBLUE® Cell Viability Assay. Biaryl compounds, C58, acetylated C58 (C58-2), C59, C59-2, C59Na, and C59Li were incubated with cells for 24 hours and an ALAMARBLUE® Cell Viability Assay was performed to determine cell viability relative to untreated controls (FIGS. 13A-13C). Cell viability curves were analyzed using non-linear curve fit to yield the inhibitory concentration at median cell survival (LD50) for all cell lines (Table 3).
Next, the toxicity of lead candidates was tested against human lung airway epithelial cells (16HBE) and human dermal fibroblasts (HDF) using an alamarBlue® Cell Viability Assay.

For data set [8], the system named is R. equi strains 701+, 701−, 703, and 5331. The data set is described as follows: MIC/MBC broth microdilution against R. equi. It counts as cell-based, Rhodococcus equi. For orientation: Broth dilution looks for growth in wells or tubes with falling amounts of substance.
Data set [9] relates to 38 MRSA strains. The data set can be described thus: microbe, parasite or virus in culture. The following applies: Staphylococcus aureus; for MIC90: 38 MRSA strains, MH broth; for MBC: read-out: MBC90, 38 MRSA strains, MH broth.
Data set [10] has as its system 38 MRSA strains.

The structures appear in SMILES notation. Values after ≈ are worked out from the molar mass of the structure shown. “Also recorded” adds a separate entry of the source. Counter-ions that a name gives are not always drawn. Like-named read-outs stand apart in the source and are kept apart here.

As for `CC(=O)Oc1c(Br)cc(Br)cc1-c1cc(Br)cc(Br)c1OC(C)=O` [C58-2], the “H2073 LD50” value in data set [1] was found to be 36 µM. The “H460 LD50” value in data set [2] was determined as 51 µM. The “A549 LD50” value in data set [3] came out at 74 µM. For the same molecule, the “H2122 LD50” value in data set [4] was 87 µM.

Consider `[Na+].[Na+].[O-]c1c(Br)cc(Br)cc1-c1cc(Br)cc(Br)c1[O-]` [C58Na], for which, in data set [5], the “activity in the absence of DMSO versus with 2.5% DMSO” value was “at least comparable activity”; the “antimicrobial activity (MIC and MBC) compared to the parent compound” value is “poor activity”. The onset of hemolysis in data set [6] fell in the range of 32 to 48 µg/mL. Also, in data set [7], the “16HBE LD50” value is 92.3 µg/mL.

By MIC is commonly meant the lowest concentration that inhibits growth of the organism. As for `CC(=O)Oc1c(Cl)cc(Cl)cc1-c1cc(Cl)cc(Cl)c1OC(C)=O` [C59-2], in data set [1], the “H2073 LD50” value amounted to 45 µM. For the same molecule, the “antimicrobial activity (MIC and MBC) compared to the parent compound” value in [5] is “Reduction of activity”. The “H460 LD50” value in data set [2] worked out at 73 µM. For the same molecule, the MBC in [8] (strain 701+), in data set [8] (strain 701−), in data set [8] (strain 703) and in data set [8] (strain 5331) was 16 µg/mL (≈ 39.2 µM) each time. The MIC in data set [8] (strain 701+) was 4 µg/mL (≈ 9.8 µM); in data set [8] (strain 701−), 4 µg/mL (≈ 9.8 µM); in [8] (strain 703), 2 µg/mL (≈ 4.9 µM); in data set [8] (strain 5331), 4 µg/mL (≈ 9.8 µM). In addition, the “A549 LD50” value in data set [3] worked out at 74 µM. Moreover, in [4], the “H2122 LD50” value was found to be 99 µM.

For the molecule `[Li+].[Li+].[O-]c1c(Cl)cc(Cl)cc1-c1cc(Cl)cc(Cl)c1[O-]` [C59Li], in data set [5], the “activity in the absence of DMSO versus with 2.5% DMSO” value was “at least comparable activity”; the “antimicrobial activity (MIC and MBC) compared to the parent compound” value is “enhanced activity; also recorded: superior activity over C59”. In addition, the “16HBE LD50” value in data set [7] worked out at 24.4 µg/mL.

Turning to `Nc1c(-c2c(O)ccc3ccccc23)cc(Cl)c(Cl)c1Cl` [C119], the “H2073 LD50” value in data set [1] worked out at 33 µM. Besides, the “H460 LD50” value in data set [2] is 37 µM. In data set [3], the “A549 LD50” value came to 52 µM. In data set [4], the “H2122 LD50” value came out at 58 µM.

Regarding `CCC[C@@H]1C[C@@H](C(=O)N[C@@H]([C@H]2O[C@H](SC)[C@H](O)[C@@H](O)[C@H]2O)[C@H](C)Cl)N(C)C1` [Clindamycin hydrochloride], in data set [9], the MIC90 was at least 32 µg/mL and the MBC is at least 32 µg/mL. In [10] (MH broth, hydrochloride), this molecule registered an MBC90 of over 32 µg/mL and an MIC90 of over 32 µg/mL.

Regarding `CCCCCCCCCC(=O)N[C@@H](Cc1c[nH]c2ccccc12)C(=O)N[C@H](CC(N)=O)C(=O)N[C@@H](CC(=O)O)C(=O)N[C@@H]1C(=O)NCC(=O)N[C@@H](CCCN)C(=O)N[C@@H](CC(=O)O)C(=O)N[C@H](C)C(=O)N[C@@H](CC(=O)O)C(=O)NCC(=O)N[C@H](CO)C(=O)N[C@@H]([C@H](C)CC(=O)O)C(=O)N[C@@H](CC(=O)c2ccccc2N)C(=O)O[C@@H]1C` [Daptomycin hydrochloride], the MBC90 in data set [10] (MH broth) was over 32 µg/mL; in [10] (cation adjusted MH broth), 2 µg/mL.

Regarding `CC(=O)NC[C@H]1CN(c2ccc(N3CCOCC3)c(F)c2)C(=O)O1` [Linezolid], in data set [9], the MIC90 came to 4 µg/mL (≈ 11.9 µM) and the MBC was over 32 µg/mL.

For `CO[C@H]1/C=C/O[C@@]2(C)Oc3c(C)c(O)c4c(O)c(c(/C=N/N5CCN(C)CC5)c(O)c4c3C2=O)NC(=O)/C(C)=C\C=C\[C@H](C)[C@H](O)[C@@H](C)[C@@H](O)[C@@H](C)[C@H](OC(C)=O)[C@@H]1C` [Rifampicin, reference compound], the MBC in [8] (Rhodococcus (subgen. Prescottella) equi, strain 701+, read-out: MBC) was over 192 µg/mL; in [8] (Rhodococcus (subgen. Prescottella) equi, strain 701−, read-out: MBC), over 192 µg/mL; in [8] (Rhodococcus (subgen. Prescottella) equi, strain 703, read-out: MBC), 80 µg/mL (≈ 97.2 µM); in data set [8] (Rhodococcus (subgen. Prescottella) equi, strain 5331, read-out: MBC) it was 32 µg/mL (≈ 38.9 µM). The minimum inhibitory concentration (MIC) in [8] (Rhodococcus (subgen. Prescottella) equi, strain 701+, read-out: MIC) was determined as 0.5 µg/mL (≈ 0.608 µM); in data set [8] (Rhodococcus (subgen. Prescottella) equi, strain 703), 0.125 µg/mL (≈ 0.152 µM); in data set [8] (Rhodococcus (subgen. Prescottella) equi, strain 5331), 0.125 µg/mL (≈ 0.152 µM); in data set [8] (strain 701−) it was 0.5 µg/mL (≈ 0.608 µM).
